# From patent US20170143646A1, “EFFECT OF LIPOPHILIC NUTRIENTS ON DIABETIC EYE DISEASES” (OmniActive Health Technologies Limited, priority 2014, published 2017)
# Assays:
# Type in all cases: in vivo, rat
# [1] = system: Nerve Growth Factor (NGF); assay: NGF protein in retina by immunofluorescence; conditions: diabetic retina, curcumin 0.01% diet
# Description: (§1) Histopathology: The eye balls from selected animals were collected in fixative 4% paraformaldehyde solution in separately labeled vials. The tissues were given some nicks so as to facilitate penetration of fixative into deep tissue. They were kept at room temperature for 24-48 hrs followed by replacing the fixative with 20 mM sodium phosphate buffer. Buffer was scheduled to be replaced with fresh buffer one each week until histopathological processing. Tissues were embedded in paraffin and sections were taken in microtome. Coated slides are used for immunohistochemistry and immunofluorescence, whereas uncoated slides for hemotoxylin and eosin (H & E) staining.
# [2] = system: STZ-induced diabetic rats; assay: Electroretinogram, oscillatory potentials (OPs); conditions: curcumin 0.01% diet; D 334.2
# Description: Experimental design: Male Wistar-NIN rats with an average body weight of 120 gms are obtained from the National center for laboratory animal sciences, National institute of Nutrition, Hyderabad (NCLAS, NIN). Animals were maintained at NCLAS, MN and kept for acclimatization in an experimental room for two weeks. Diabetes was induced in overnight fasted animals by a single intraperitoneal injection of STZ (30 mg/kg) in 0.1 M citrate buffer, pH 4.5. Another set of rats, which received only a vehicle, served as the control (Group-C; n=6). Fasting blood glucose levels were measured 72 h after STZ injection. Animals having blood glucose levels >150 mg/dL were considered diabetic and all the animals are divided into four groups as shown in the Table 3 below.
# All the animals were housed in individual cages maintained on their respective diets for 12. weeks and drinking water was provided ad libitum throughout the study period. Daily food intake and weekly body weights, fasting glucose levels were noted. […]
# Electroretinogram (ERG) Analysis: Diabetic retinoapthy is characterized by disturbances in retinal function. The retinal function can be assessed by electroretinogram. […]
# Animals were dark-adapted for overnight and prepared for the ERG procedure under dim red illumination. […] The oscillatory potentials were extracted from the wave form and the sum of all OPs was calculated.
# [3] = system: STZ-induced diabetic rats; assay: Retina histology (H & E), thickness of retinal layers; conditions: curcumin 0.01% diet, Table 6
# Description: as §1
# A representative table of retinal layers thickness (in μm) measured by the use of Lieca application suit, Leica, Switzerland. C, Non diabetic control; D, Diabetic control; D+RL, Diabetes+Regular Lutein; D+SL, Diabetes+Soluble Lutein; GCL, ganglion cell layer; IPL, inner plexiform layer; INL, inner nuclear layer; OPL, outer plexiform layer; ONL, outer nuclear layer; PRL, photo receptor layer.
# [4] = system: STZ-induced diabetic rats; assay: SDS-PAGE protein profiling of lens soluble fraction; conditions: vs group-D
# Description: (§2) Sodium dodecyl sulfate polyacrylamide gel electrophoresis (SDS-PAGE) and size exclusion chromatography of lens proteins: Subunit profile and cross-linking of soluble proteins were analyzed on 10% polyacrylamide in the presence of sodium dodecyl sulfate (SDS) under reducing conditions. Crystalline distribution in the soluble protein fraction was performed by size exclusion chromatography on a 600×7.5 mm TSK-G4000 SW column (TOSOH Co., Japan) using a HPLC system. The column was equilibrated with 0.1 M sodium phosphate buffer pH 6.7 containing 0.1 M sodium chloride at a flow rate of 1 ml/min.
# SDS-PAGE protein profiling: Differences in protein distribution pattern were observed by running the lens protein samples on 12% polyacrylamide gel. 30 μg of protein was loaded per well along with molecular weight marker for SDS-PAGE (Broad range SDS-PAGE marker, BioRad). […] FIG. 3 represents the SDS-PAGE pattern of soluble fraction of lens proteins, as shown in the drawings accompanied with the specification.
# [5] = system: STZ-induced diabetic rats; assay: Total and soluble protein in lens homogenate (Lowry)
# Description: Blood/Lens collection and processing: Blood was drawn once in every week from retro orbital plexus for glucose and insulin estimation. At the end of 12 weeks, animals were sacrificed by CO2 asphyxiation and lenses were dissected by posterior approach and stored at −70° C. until further analysis. A 10% homogenate was prepared from 3-5 pooled lenses in 50 mM phosphate buffer, pH 7.4. All the biochemical parameters were analyzed in the soluble fraction of the lens homogenate (15,000x g at 4° C.) except for lens malondialdehyde (MDA), which was determined in the total homogenate.
# Biochemical estimations: Lens MDA, as thiobarbituric acid reacting substances (TBARS) protein carbonyl content were determined according to the methods for estimating the protein carbonyl content described by Suryanarayana P et al. in the research paper “Curcumin and turmeric delay streptozotocin-induced diabetic cataract in rats,” Invest Ophthalmol Vis Sci 2005; 46(6):2092-9. Total, soluble and insoluble protein was assayed by Lowry method using bovine serum albumin (BSA) as standard.
# Individual lenses were weighed and pooled into 4 lenses for a pool, and such 4-5 pools were formed per group. A 10% homogenate was prepared in 50 mM sodium phosphate buffer pH 7.4, with tissue homogenizer at intermittent time gaps to avoid excess heat generation. Separate aliquots of total homogenate (TH) were made 250 μl for TBARS assay, 150 μl for sorbitol estimation, and 20 μl for protein estimation. Remaining homogenate was centrifuged at 10,000 RPM for 30 min at 4° C. Supernatant was separated into labelled vials, as total soluble protein (TSP).
# Determining soluble percentage of protein in lens homogenate: Protein estimation was done in lens homogenate and soluble fraction by Lowry's method. Amount of protein present per gram weight of lens was calculated. Percentage of soluble protein was calculated by multiplying the fraction of soluble protein by 100.
# [6] = system: Nerve Growth Factor (NGF); assay: NGF gene expression in retina by real-time PCR; conditions: diabetic retina, curcumin 0.01% diet
# Description: (§3) Quantitative real-time PCR: Total RNA was extracted from the retina of rats using Tri reagent. Isolated RNA was further purified by RNeasy Mini Kit (Qiagen) and quantified by measuring the absorbance at 260 and 280 nm on ND1000 spectrophotometer (NanoDrop technologies, Delaware, USA). The quality of RNA preparation was assessed by electrophoresis on a denaturing agarose gel. Two μg of total RNA was reverse transcribed using High Capacity cDNA Reverse Transcription kit. Reverse transcription reaction was carried out with a thermocycler (ABI 9700). Real-time polymerase chain reaction (PCR) (ABI-7500) was performed in triplicates with 25 ng cDNA templates using SYBR green master mix with gene specific primers. Normalization and validation of data were carried using (3-actin as an internal control and data were compared between samples according to comparative threshold cycle (2^-ΔΔct) method.
# [7] = system: STZ-induced diabetic rats; assay: Size exclusion HPLC of lens soluble protein; conditions: vs Group-D
# Description: as §2
# [8] = system: STZ-induced diabetic rats; assay: Slit lamp examination and cataract grading (diabetic cataract); conditions: end of ten weeks; lutein 0.5% or curcumin 0.01% in diet; Group-D stage 4
# Description: Male Wistar strain (WNIN) rats (2 months old; Average BW of 213±14 g) obtained from the National Center for Laboratory Animal Sciences, National Institute of Nutrition, Hyderabad, India (NCLAS, NIN). Animals were maintained at NCLAS, NIN and kept for acclimatization in an experimental room for two weeks. Diabetes was induced in overnight fasted animals by a single intraperitoneal injection of STZ (30 mg/kg) in 0.1 M citrate buffer, pH 4.5. Another set of rats, which received only a vehicle, served as the control (Group I; n=12). Fasting blood glucose levels were measured 72 h after STZ injection. Animals having blood glucose levels >150 mg/dL were considered diabetic and those were only divided into five groups (Group II-VI). A group of control rats (n=6) were fed with 0.01% soluble curcumin (Group VII) and soluble 0.5% lutein alone (Group VIII).
# Slit lamp examination and Cataract grading: Eyes were examined every week using a slit lamp bio microscope on dilated pupils. Initiation and progression of lens opacity was graded into five categories (0-4).
# Cataract development and progression: Onset and progression of cataract is monitored by slit lamp biomicroscope examination as described below: Eyes were examined every week using a slit lamp biomicroscope (Kowa SL15, Portable, Japan) on dilated pupils.
# Rhodopsin (Rho) [9] = assay: Rhodopsin mRNA in retina by real-time PCR; conditions: diabetic retina, curcumin 0.01% diet
# Description: as §3
# Rhodopsin (Rho) [10] = assay: Rhodopsin protein in retina by immunofluorescence; conditions: diabetic retina, curcumin 0.01% diet
# Description: as §1
# [11] = system: Platelet-derived growth factor (PDGF); assay: PDGF expression in retina by immunohistochemistry; conditions: diabetic retina, curcumin 0.01% diet
# Description: as §1
structure (smiles),measurement,setting,value
"COc1cc(/C=C/C(=O)CC(=O)/C=C/c2ccc(O)c(OC)c2)ccc1O [RC, curcumin]",NGF protein,[1],prevented loss of NGF protein
same,sum of OPs (amplitude),[2],445.7 μV
same,GCL + IPL thickness,[3],35.692 μ
same,INL thickness,[3],13.648 μ
same,ONL thickness,[3],30.108 μ
same,OPL thickness,[3],5.685 μ
same,PRL thickness,[3],19.520 μ
same,Total retinal thickness,[3],106.014 μ
same,band of aggregated proteins at ~50 kDa,[4],reduced band intensity
same,loss of soluble protein compared to group-D,[5]; lens,significantly prevented loss of soluble protein
same,Total protein,"[5]; lens homogenate, mean ± SEM, n = 6, lutein 0.5% or curcumin 0.01% diet, 12 weeks",368.50 ± 19.2 mg/gm lens
same,Soluble protein,"[5]; lens soluble fraction, mean ± SEM, n = 6",202.63 ± 21.6 mg/gm lens
same,NGF gene expression,[6],equal beneficiary effect in preventing down regulation of NGF gene
same,size exclusion profile of total soluble protein (TSP),[7],normalized the profile of TSP
same,severity of cataracts (stage 0-4),[8],3.0 stage
same,mRNA levels of Rho gene,Rhodopsin (Rho) [9],prevented its decline
same,Rho protein expression,Rhodopsin (Rho) [10],prevented loss of Rho protein expression
same,PDGF expression,[11],inhibited diabetes induced PDGF over expression
